# Results reported in patent publication US4533747A, “Leukotriene antagonists intermediates” (SmithKline Beckman Corporation, priority 1983, dated 1985).
# Molecular target: T1, leukotriene (LTD4) induced contraction of guinea pig tracheal tissues (Cavia porcellus, UniProt Q2NNR5)
# T1 construct: Guinea pig (adult male albino Hartley strain) tracheal spiral strips; from tissue; host or cells: guinea pig (adult male albino Hartley strain) tracheal spiral strips
# T1 sequence (Q2NNR5 1-340): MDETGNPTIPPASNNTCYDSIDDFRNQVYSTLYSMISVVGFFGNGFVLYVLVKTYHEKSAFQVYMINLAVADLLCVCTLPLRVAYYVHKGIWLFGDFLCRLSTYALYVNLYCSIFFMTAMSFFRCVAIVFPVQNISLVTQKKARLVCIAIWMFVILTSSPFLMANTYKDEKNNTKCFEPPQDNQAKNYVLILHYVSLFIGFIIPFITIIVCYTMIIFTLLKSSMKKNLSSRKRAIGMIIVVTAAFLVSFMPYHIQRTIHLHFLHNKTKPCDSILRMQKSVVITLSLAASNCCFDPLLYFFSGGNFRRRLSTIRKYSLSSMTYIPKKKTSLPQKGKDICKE
# Experiment: Inhibition of LTD4-induced contraction of guinea pig tracheal tissues in vitro
# Format: cell-based, Guinea pig (adult male albino Hartley strain)
# Conditions: LTD4 cumulative concentration-response; guinea pig tracheal spiral strips; 30 min pretreatment with test compound; meclofenamic acid 1 μM; EC30 relative to carbachol 10 μM; read-out: pA2 (converted)
# Experimental: The leukotriene antagonist activity of the compounds of formula (II) is measured by the ability of the compound to inhibit leukotriene induced contraction of guinea pig tracheal tissues in vitro. The following methodology was employed:
# In vitro: Guinea pig (adult male albino Hartley strain) tracheal spiral strips of approximate dimensions 2 to 3 mm cross-sectional width and 3.5 cm length were bathed in modified Krebs buffer in jacketed 10 ml tissue bath and continously aerated with 95% O2 /5% CO2. The tissues were connected via silk suture to force displacement transducers for recording isometric tension. The tissues were equilibrated for 1 hr., pretreated for 15 minutes with meclofenamic acid (1 μM) to remove intrinsic prostaglandin responses, and then pretreated for an additional 30 minutes with either the test compound or vehicle control. A cumulative concentration-response curve for LTD4 on triplicate tissues was generated by successive increases in the bath concentration of the LTD4. In order to minimize intertissue variability, the contractions elicited by LTD4 were standardized as a percentage of the maximum response obtained to a reference agonist, carbachol (10 μM).
# Calculations: The averages of the triplicate LTD4 concentration-response curves both in the presence and absence of the test compound were plotted on log graph paper. The concentration of LTD4 needed to elicit 30% of the contraction elicited by carbachol was measured and defined as the EC30. The pA2 value for the test compound as determined by the following equations: [formula]
row,Kb,SMILES
1,1000 nM,CCCCCCCCCCCC/C=C\C(SCCC(=O)O)C(=O)O (stereo not drawn) [2-[(2-Carboxyethyl)thio]-3(Z)-hexadecenoic acid]
2,794 nM,CCCCCCCCCCCC/C=C\C(SCCC(=O)O)C(O)CC(=O)O (stereo not drawn) [3-Hydroxy-4-[(2-carboxyethyl)thio]-5(Z)-octadecenoic acid]
3,5010 nM,CCCCCCCCCCCC/C=C\C(CO)SCCC(=O)O (stereo not drawn) [2-[(2-Carboxyethyl)thio]-3(Z)-hexadecen-1-ol]
